The source of these data is US11274111B2, “Arginase inhibitors and methods of use” (Merck Sharp & Dohme Corp., priority 2018, dated 2022).

The target in assay [1] is T1, Arginase (Homo sapiens, UniProt P05089).
T1 construct: Arginase protein was recombinantly expressed in Escherichia coli
T1 sequence (P05089 1-322): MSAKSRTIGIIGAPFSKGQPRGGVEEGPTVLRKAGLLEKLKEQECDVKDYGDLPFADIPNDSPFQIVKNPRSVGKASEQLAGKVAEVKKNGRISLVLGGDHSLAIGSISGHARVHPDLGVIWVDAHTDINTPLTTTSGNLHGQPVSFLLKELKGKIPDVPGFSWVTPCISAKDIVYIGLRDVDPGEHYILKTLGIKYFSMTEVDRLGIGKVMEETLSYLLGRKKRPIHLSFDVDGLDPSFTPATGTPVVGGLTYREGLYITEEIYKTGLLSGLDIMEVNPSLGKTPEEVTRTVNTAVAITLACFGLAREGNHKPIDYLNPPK
In words: Arginase Thioornithine Generating Assay (TOGA). Type of assay: biochemical. The conditions noted are these: for inhibition at 10 µM: Top Dose 10000 nM, read-out: Percent Inhibition at Top Dose; for IC50: recombinant arginase 1.88 nM, thioarginine substrate. The method, then: Arginase Thioornithine Generating Assay (TOGA)
Compounds were serially diluted in ten 3-fold steps in DMSO starting from 10 mM DMSO stocks. Compound dilutions or DMSO alone were then dispensed from the dilution plate into a Greiner black 384-well assay plate (catalog #781086) using an Echo 555 acoustic liquid handler (Labcyte).
Arginase protein was recombinantly expressed in Escherichia coli. Purified protein was then diluted in assay buffer (50 mM Tris pH 7.5, 50 mM NaCl, 1 mM manganese chloride, 0.05% bovine serum albumin to obtain a final Arginase concentration of 1.88 nM. Arginase solution (20 μL) or buffer alone (20 μL) were dispensed to wells of the assay plate using a BioRAPTR liquid dispenser (Beckman Coulter). Assay plates containing compound and arginase enzyme were incubated at room temperature for 30 minutes. Afterwards, 5 μL of 2.5 mM thioarginine (Cayman Chemicals) in assay buffer were added to each well of the assay plate using a BioRAPTR liquid dispenser. Plates were incubated at room temperature for 60 minutes and reactions were quenched by addition of 15 μL of 200 uM 7-Diethylamine-3-(4-maleimidophenyl)-4-methylcoumarin (Sigma Chemical) in 70% ethanol. Plates were briefly shaken to mix and the fluorescence was measured in an Spectramax plate reader (Molecular Devices) with a 410 nm excitation wavelength and an 490 nm emission wavelength.
Potencies were calculated by […] to the four parameter logistic IC50 equation.

Assay [2] deals with opossum internal anal sphincter muscle. The following applies: cited from earlier work.
Assay [3] concerns live female rabbits. The conditions noted are these: cited from earlier work.
Assay [4] concerns rabbit and human penile corpus cavernosum. The conditions noted are these: cited from earlier work.
Assay [5] relates to guinea pigs. The following applies: nebulizer treatment, allergic asthma model; cited from earlier work.
The subject of assay [6] is live male rabbits. The following applies: cited from earlier work.
The test system of assay [7] is corpus cavernosum of the diabetic person. The following applies: ex vivo; cited from earlier work.
For assay [8], the system named is experimental autoimmune encephalomyelitis. The following applies: cited from earlier work.

One may read the inhibition as the relative decrease from the control value, in per cent. One may read the IC50 as the concentration that inhibits the measured activity by half. Take `N[C@@]1(C(=O)O)C[C@H]2C[C@@H](O)C[C@H]2[C@@H]1CCCB(O)O` [Example 44a, (1S,2S,3aS,5R,6aR)-2-amino-1-(3-boronopropyl)-5-hydroxyoctahydropentalene-2-carboxylic acid]: in assay [1], the inhibition at 10 µM is 97.1% and the IC50 was 259 nM.
For `N[C@@]1(C(=O)O)C[C@H]2CN(Cc3ccc(F)cc3)C[C@H]2[C@@H]1CCCB(O)O` [Example 3, (3aR,4S,5S,6aR)-5-amino-4-(3-boronopropyl)-2-(4-fluorobenzyl)octahydrocyclopenta[c]pyrrole-5-carboxylic acid], the inhibition at 10 µM in assay [1] turned out to be 99.8%.
For `N[C@@H](CCCCB(O)O)C(=O)O` [ABH, (S)-2-amino-6-boronohexanoic acid], the “relaxation of internal anal sphincter muscle” value in assay [2] is given as “relax this muscle”. Moreover, in assay [3], the “engorgement response in the genitalia” value was “enhances the engorgement response”. Further, in assay [4], the “nitric oxide-dependent relaxation of corpus cavernosum” value was “enhances the nitric oxide-dependent relaxation of this tissue”. Also, in assay [5], the airway hyperresponsiveness result is recorded as “prevents airway hyperresponsiveness”. Also, the erectile response result in assay [6] is “enhances the erectile response”. For the same compound, the nitric oxide biosynthesis entry in assay [7] is reported as “restores nitric oxide biosynthesis”. The disease score result in assay [8] is given as “improves the disease score of animals”.
For `CC(=O)N1C[C@@H]2CC(N)(C(=O)O)C(CCCB(O)O)[C@@H]2C1` (mixture of isomers) [Example 13a, rac-(3aR,6aR)-2-acetyl-5-amino-4-(3-boronopropyl)octahydrocyclopenta[c]pyrrole-5-carboxylic acid], the inhibition at 10 µM in assay [1] came to 99%.
Still for that read-out and setting: the same measure for `N[C@@]1(C(=O)O)C[C@H]2[C@H](F)[C@@H](O)C[C@H]2[C@@H]1CCCB(O)O` [Example 54a, (1S,2S,3aR,4S,5S,6aS)-2-amino-1-(3-boronopropyl)-4-fluoro-5-hydroxyoctahydropentalene-2-carboxylate]: 101%.
`CC(C)[C@H](N)C(=O)N1C[C@@H]2C[C@@](N)(C(=O)O)[C@@H](CCCB(O)O)[C@@H]2C1` [Example 42, (3aR,4S,5S,6aR)-2-(L-valyl)-5-amino-4-(3-boronopropyl)octahydrocyclopenta[c]pyrrole-5-carboxylic acid]: in assay [1], the inhibition at 10 µM worked out at 98% and the IC50 worked out at 52 nM.
